Entries after “also recorded” stand apart in the source; their conditions may differ.
Experiments:
[1] = test system: APOE4/4 homozygote patients and APOE4 heterozygote patients with mild-moderate Alzheimer's disease; test: Expected treatment response to other 5-HT6 receptor antagonists in APOE4 patients; assay type: in vivo, human; conditions: APOE4/4 homozygote and APOE4 heterozygote patients with mild-moderate AD; surmised from idalopirdine
[2] = test system: patients with mild-moderate AD; test: Phase III studies 14861A and 14863A pooled, MMSE by ApoE4 allele number; conditions: 60 mg versus placebo, adjunct to AChEI
[3] = test system: patients with mild-moderate AD; test: Phase III studies 14861A and 14863A pooled, ADAS-cog by ApoE4 allele number; conditions: 60 mg versus placebo, adjunct to AChEI
[4] = test system: patients with mild-moderate AD; test: Phase III study 14861A, ADCS-ADL by ApoE4 allele number; conditions: 60 mg QD versus placebo, adjunct to donepezil
[5] = test system: patients with mild-moderate AD; test: Phase III study 14863A, ADCS-ADL by ApoE4 allele number; conditions: 60 mg QD versus placebo, adjunct to donepezil, rivastigmine, galantamine
[6] = test system: patients with mild-moderate AD; test: Phase III study 14863A, NPI by ApoE4 allele number; conditions: 60 mg QD versus placebo, adjunct to donepezil, rivastigmine, galantamine
[7] = test system: patients with mild-moderate AD; test: Phase III study 14861A, ADAS-cog by ApoE4 allele number; conditions: 60 mg QD versus placebo, adjunct to donepezil
[8] = test system: patients with mild-moderate AD; test: Phase III study 14861A, NPI by ApoE4 allele number; conditions: 60 mg QD versus placebo, adjunct to donepezil
h5-HT7 = h5-HT7 (Homo sapiens, UniProt P34969); conditions: cited from earlier work
Chain of h5-HT7 (P34969 whole entry): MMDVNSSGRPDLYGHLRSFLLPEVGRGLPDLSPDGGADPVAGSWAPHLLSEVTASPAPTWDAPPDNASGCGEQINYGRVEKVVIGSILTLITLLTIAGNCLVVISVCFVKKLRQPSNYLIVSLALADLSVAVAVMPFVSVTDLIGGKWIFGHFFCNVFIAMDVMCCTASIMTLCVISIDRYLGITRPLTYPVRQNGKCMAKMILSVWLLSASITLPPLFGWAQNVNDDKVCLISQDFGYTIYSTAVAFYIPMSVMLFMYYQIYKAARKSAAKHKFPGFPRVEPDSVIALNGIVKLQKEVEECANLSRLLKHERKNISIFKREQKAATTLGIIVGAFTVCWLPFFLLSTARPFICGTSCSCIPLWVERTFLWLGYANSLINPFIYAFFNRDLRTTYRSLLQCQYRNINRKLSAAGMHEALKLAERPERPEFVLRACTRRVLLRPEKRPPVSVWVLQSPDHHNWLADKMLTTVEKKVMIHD

[9] = test system: patients with moderate AD (MMSE 12-19); conditions: LADDER study, 90 mg/day (30 mg TID) added to stable donepezil; cited from earlier work
h5-HT2B = h5-HT2B (Homo sapiens, UniProt P41595); conditions: cited from earlier work
Chain of h5-HT2B (P41595 whole entry): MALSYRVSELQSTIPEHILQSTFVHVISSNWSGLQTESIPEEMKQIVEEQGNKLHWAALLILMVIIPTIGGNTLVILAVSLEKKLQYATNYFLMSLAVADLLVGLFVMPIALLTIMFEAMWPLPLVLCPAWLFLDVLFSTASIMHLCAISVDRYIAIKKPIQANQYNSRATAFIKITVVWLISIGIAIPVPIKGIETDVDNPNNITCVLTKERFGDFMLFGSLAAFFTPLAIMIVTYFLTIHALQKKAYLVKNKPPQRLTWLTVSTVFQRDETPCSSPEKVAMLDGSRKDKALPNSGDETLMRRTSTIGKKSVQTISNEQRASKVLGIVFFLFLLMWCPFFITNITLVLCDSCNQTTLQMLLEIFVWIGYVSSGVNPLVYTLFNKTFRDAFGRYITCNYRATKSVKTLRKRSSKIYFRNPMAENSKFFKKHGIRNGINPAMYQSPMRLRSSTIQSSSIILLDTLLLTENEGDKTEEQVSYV

h5-HT1B = h5-HT1B (Homo sapiens, UniProt P28222); conditions: cited from earlier work
Chain of h5-HT1B (P28222 whole entry): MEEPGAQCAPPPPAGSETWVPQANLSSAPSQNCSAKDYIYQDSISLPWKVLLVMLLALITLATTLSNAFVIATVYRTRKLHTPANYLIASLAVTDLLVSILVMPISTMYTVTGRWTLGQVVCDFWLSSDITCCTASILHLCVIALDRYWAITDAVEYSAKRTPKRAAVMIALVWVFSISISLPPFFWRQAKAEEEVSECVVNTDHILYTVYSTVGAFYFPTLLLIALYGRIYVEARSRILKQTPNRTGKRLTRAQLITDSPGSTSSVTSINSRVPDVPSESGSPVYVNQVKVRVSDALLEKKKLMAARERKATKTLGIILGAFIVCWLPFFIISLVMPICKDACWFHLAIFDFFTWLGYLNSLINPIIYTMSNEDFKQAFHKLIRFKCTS

[10] = test system: patients with mild-moderate AD; test: Phase III study 14861A, MMSE by ApoE4 allele number; conditions: 60 mg QD versus placebo, adjunct to donepezil
[11] = test system: patients with mild-moderate AD; test: Phase III studies 14861A and 14863A pooled, ADCS-ADL by ApoE4 allele number; conditions: 60 mg versus placebo, adjunct to AChEI
[12] = test system: patients with mild-moderate AD; test: Phase III study 14863A, MMSE by ApoE4 allele number; conditions: 60 mg QD versus placebo, adjunct to donepezil, rivastigmine, galantamine
[13] = test system: patients with mild-moderate AD; test: Phase III studies 14861A and 14863A pooled, NPI by ApoE4 allele number; conditions: 60 mg versus placebo, adjunct to AChEI
h5-HT1E = h5-HT1E (Homo sapiens, UniProt P28566); conditions: cited from earlier work
Chain of h5-HT1E (P28566 whole entry): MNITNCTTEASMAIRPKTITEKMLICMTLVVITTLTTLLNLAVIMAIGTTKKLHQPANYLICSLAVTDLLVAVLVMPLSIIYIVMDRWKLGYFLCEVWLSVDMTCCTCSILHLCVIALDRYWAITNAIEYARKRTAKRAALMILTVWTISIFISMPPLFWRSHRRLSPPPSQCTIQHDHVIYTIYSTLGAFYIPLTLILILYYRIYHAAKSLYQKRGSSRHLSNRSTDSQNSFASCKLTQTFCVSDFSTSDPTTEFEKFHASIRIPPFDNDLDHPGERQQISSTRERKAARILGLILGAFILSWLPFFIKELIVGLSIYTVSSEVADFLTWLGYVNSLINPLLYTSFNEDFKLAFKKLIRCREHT

[14] = test system: patients with mild-moderate Alzheimer's disease (MMSE 12-22); test: Phase III program, idalopirdine as adjunctive treatment to acetylcholinesterase inhibitor, cognitive performance; assay type: in vivo, human
[15] = test system: patients with mild-moderate AD; test: Phase III study 14863A, ADAS-cog by ApoE4 allele number; conditions: 60 mg QD versus placebo, adjunct to donepezil, rivastigmine, galantamine
AD = conditions: cited from earlier work
[16] = 0 ApoE4 alleles, positive = positive treatment effect
[17] = 1 ApoE4 allele, positive = positive treatment effect
[18] = 2 ApoE4 alleles, positive = positive treatment effect
[19] = interaction 2 vs 0 ApoE4 alleles
[20] = interaction (1 or 2) vs 0 ApoE4 alleles
[21] = 0 ApoE4 alleles, negative = positive treatment effect
[22] = 1 ApoE4 allele, negative = positive treatment effect
[23] = 2 ApoE4 alleles, negative = positive treatment effect

In the case of `CSc1nn2c(C)cc(C)nc2c1S(=O)(=O)c1ccccc1` [AVN-211, 3-Benzenesulfonyl-5,7-dimethyl-2-methylsulfanyl-pyrazolo[1,5-a]pyrimidine], the “treatment response in Alzheimer's disease” value [1] is reported as “enhanced treatment response”.

For `O=S(=O)(c1ccccc1)c1cnc2c(N3CCNCC3)cccc2c1` [RVT-101, 3-phenylsulfonyl-8-piperazin-1-yl-quinoline], the “treatment response in Alzheimer's disease” value [1] was “enhanced treatment response”.

In the case of `Fc1ccc2c(CCNCc3cccc(OCC(F)(F)C(F)F)c3)c[nH]c2c1` [idalopirdine, N-(2-(6-fluoro-1H-indol-3-yl)-ethyl)-3-(2,2,3,3-tetrafluoropropoxy)-benzylamine], the “Change in MMSE at week 24, effect of 60 mg IDL” value (“Change in MMSE” below) [2, 16] is reported as −0.20, the “Change in MMSE” value [2, 17] is reported as 0.53 and the “Change in MMSE” value [2, 18] is reported as 1.00. The “Change in MMSE” value [2, 19] was 1.20, the “Change in MMSE” value [2, 20] was 0.96 and the “Change in ADAS-cog at week 24, effect of 60 mg IDL” value (from here on “Change in ADAS-cog”) [3, 21] was 0.02. The “Change in ADAS-cog” value [3, 22] was −0.41, the “Change in ADAS-cog” value [3, 23] was −2.11 and the “Change in ADAS-cog” value [3, 19] was −2.13. For the same compound, the “Change in ADAS-cog” value [3, 20] was −1.28, the “Change in ADCS-ADL at week 24, effect of 60 mg IDL” value (shortened to “Change in ADCS-ADL”) [4, 16] was −1.29 and the “Change in ADCS-ADL” value [4, 17] was 0.75. For the same compound, the “Change in ADCS-ADL” value [4, 18] was 2.06, the “Change in ADCS-ADL” value [4, 19] was 3.35 and the “Change in ADCS-ADL” value [4, 20] was 2.69. For the same compound, the “Change in ADCS-ADL” value [5, 16] was 0.50, the “Change in ADCS-ADL” value [5, 17] was 0.83 and the “Change in ADCS-ADL” value [5, 18] was 1.86. For the same compound, the “Change in ADCS-ADL” value [5, 19] was 1.37, the “Change in ADCS-ADL” value [5, 20] was 0.85 and the “Change in NPI at week 24, effect of 60 mg IDL” value (“Change in NPI” below) [6, 21] was −0.09. The “Change in NPI” value [6, 22] was 0.34, the “Change in NPI” value [6, 23] was −2.06 and the “Change in NPI” value [6, 19] was −1.97. The “Change in NPI” value [6, 20] was −0.77, the “Change in ADAS-cog” value [7, 21] was 1.14 and the “Change in ADAS-cog” value [7, 22] was −0.67. The “Change in ADAS-cog” value [7, 23] was −1.87, the “Change in ADAS-cog” value [7, 19] was −3.02 and the “Change in ADAS-cog” value [7, 20] was −2.42. The “Change in NPI” value [8, 21] was 0.96, the “Change in NPI” value [8, 22] was −0.43 and the “Change in NPI” value [8, 23] was −4.52. For the same compound, the “Change in NPI” value [8, 19] was −5.48, the “Change in NPI” value [8, 20] was −3.44 and the Ki (h5-HT7) was greater than 10 µM. The “cognitive performance relative to donepezil monotherapy” value [9] was “significant improvement”, the Ki (h5-HT2B) was greater than 4.1 µM and the Ki (h5-HT1B) was greater than 10 µM. The “Change in MMSE” value [10, 16] was −0.68, the “Change in MMSE” value [10, 17] was 0.64 and the “Change in MMSE” value [10, 18] was 1.11. For the same compound, the “Change in MMSE” value [10, 19] was 1.79, the “Change in MMSE” value [10, 20] was 1.56 and the “Change in ADCS-ADL” value [11, 16] was −0.21. The “Change in ADCS-ADL” value [11, 17] was 0.77, the “Change in ADCS-ADL” value [11, 18] was 1.88 and the “Change in ADCS-ADL” value [11, 19] was 2.09. The “Change in ADCS-ADL” value [11, 20] was 1.53, the “Change in MMSE” value [12, 16] was 0.16 and the “Change in MMSE” value [12, 17] was 0.42. The “Change in MMSE” value [12, 18] was 0.96, the “Change in MMSE” value [12, 19] was 0.80 and the “Change in MMSE” value [12, 20] was 0.53. The “Change in NPI” value [13, 21] was 0.35, the “Change in NPI” value [13, 22] was −0.04 and the “Change in NPI” value [13, 23] was −3.06. For the same compound, the “Change in NPI” value [13, 19] was −3.41, the “Change in NPI” value [13, 20] was −1.90 and the Ki (h5-HT1E) was greater than 4.6 µM. For the same compound, the “cognitive performance relative to donepezil monotherapy” value ([14]; adjunctive to donepezil, APOE4 homozygote and APOE4 heterozygote patients with mild-moderate AD (MMSE 12-22)) was “a significant improvement”, the “cognitive performance relative to donepezil monotherapy” value ([14]; phase III, 10, 30, and 60 mg QD adjunctive to AChEI, all patients with mild-moderate AD (MMSE 12-22)) was “did not replicate the phase II efficacy results; also recorded: no significant improvement” and the “Change in ADAS-cog” value [15, 21] was −0.75. For the same compound, the “Change in ADAS-cog” value [15, 22] was −0.18, the “Change in ADAS-cog” value [15, 23] was −2.23 and the “Change in ADAS-cog” value [15, 19] was −1.48. The “Change in ADAS-cog” value [15, 20] was −0.46.

For `NCCCS(=O)(=O)O` [tramiprosate], the “primary endpoint of phase III program” value (AD; all patients) is given as “not to meet its primary endpoint” and the prespecified subgroup analysis (AD; apolipoprotein E4 carriers) is given as “potential efficacy”.
